The source of these data is patent US20120156648A1, “APPARATUS AND METHOD FOR DELIVERING A THERAPEUTIC AGENT TO DENTAL TISSUE” (BUCKEYE DENTAL, LLC, priority 2010, published 2012).

The nature of this series: In vitro model of drug delivery: HP gel into extracted human teeth by MACROESIS vs diffusion, HP eluted into water measured by colorimetric kit / UV-Vis at 550 nm. In kind it is in vitro ADME. Conditions: for HP concentration in receiving medium (distilled water): below threshold of reliable detection, excluded from analysis. As for the experimental part: MACROESIS™ drug delivery system uses an AC electrical field to push active pharmaceutical agents through biological membranes, such as peroxide gels into the layers of tooth enamel. Current methods of chair-side whitening involve applying a gel which is either self-activating, or activated by heat or UV. Another alternative involves custom trays containing the whitening agent obtained from a dentist used over a 7-10 day period at home (30 min to 2 hours per application). An in vitro model of drug delivery was used in a validity study investigating the delivery of a 35% Carbamide Peroxide gel into extracted human teeth by MACROESIS™.
Fourteen (14) freshly extracted human teeth without detectable caries or restoration were stored in distilled water at 4° C. and used within 1 month of extraction. Teeth were randomly assigned to the diffusion experimental group (6 teeth) or enhanced electrochemical delivery (MACROESIS™) experimental group (6 teeth). Two teeth were randomly assigned to a control group. The experiment was run in two rounds of six teeth each (3 from each treatment group) approximately two weeks apart to show repeatability of results.
The diffusion group received: 66±1 mg 6% HP gel applied evenly to the tooth surface for 20 minutes. The MACROESIS™ group received: 66±1 mg 6% HP gel applied evenly to the tooth surface for 20 minutes using the electrochemical drug delivery device and electrode (FIG. 5A-C). The control group contained one control tooth subjected to the diffusion treatment and one control tooth subjected to the MACROESIS™ treatment.
Following treatment, the teeth were rinsed twice in distilled water and dried. The outer surface of the teeth was covered with two layers of clear nail varnish to fill any defects. […]
The amount of H2O2 that diffused from the dentin was measured by a colorimetric oxidation-reduction reaction kit (HYDROGEN PEROXIDE CHEMets®, VACUettes® and Vacu-vials®, CHEMetrics, Inc., Calverton, Va.). HP concentration was measured by UV-Vis spectroscopy at 550 nm.

For the molecule `OO` [HP, H2O2], the “HP concentration in receiving medium (distilled water)” value is, setting by setting: (1-hour samples) less than 0.1 PPM; (48-hour samples) less than 0.1 PPM. Also, the “time in which the majority of the HP eluted from the teeth into the water” value (receiving medium removed at 1 hour, 24 hours and 48 hours) was “between 1 hour and 24 hours”.
